# Results as given in patent publication US12600715B2, “Soluble guanylate cyclate activators for treating systemic sclerosis” (Boehringer Ingelheim International GmbH, priority 2022, dated 2026).
# Entries after “also recorded” stand apart in the source; their conditions may differ. Where two headings read alike, the source gives them in different places.
# What was measured:
# [1] = tested on: primary human microvascular endothelial cells; experiment: Hypoxia assay: hypoxia induced TGFβ2 production (MSD ELISA); type: cell-based
# Procedure: The assay uses the following materials and reagents: • Human dermal microvascular endothelial cells are obtained from (Lonza, 2543). • All experiments are performed with cells between passage 4 and passage 8. […]
# Culturing endothelial cells: Dermal endothelial cells from each of the indicated donors are grown in T175 flasks with normal culturing media in 37° C./5% CO2 incubator. […] Cells are counted and plated into new T175 for further expansion or plated for the experiment as described in the protocol below. […]
# • Day 0: Cells are trypsinized, counted and plated such that each well contains 8×10^3 cells and 100 μl of media and put in an incubator overnight (37° C.) • Day 1: Media is aspirated and replaced with basal media left at 37° C. overnight-24 hours • Day 2: Basal media is replaced with 90 μL of fresh basal media. […]
# After treatment plates are left in 37° C. […] Supernatant is collected and TGFβ2 μlevels are measured using MSD ELISA.
# Dermal microvascular endothelial cells from three normal donors are plated and grown to confluence. […] Cells and supernatants are collected after 48 hours and TGFβ2 μlevels are measured by MSD-ELISA. MSD plates are read using the MSD QuickPlex SQ 120 Instrument. […]
# [2] = tested on: bleomycin-induced dermal fibrosis; type: in vivo
# [3] = tested on: bleomycin-induced pulmonary fibrosis; experiment: Bleomycin-induced pulmonary fibrosis, therapeutic dosing; type: in vivo, C57Bl/6 mice
# Procedure: Compounds and formulation: Compound: Compound 114 (sample ID 30295026), batch 5 and EX00076637 (EX76637/riociguat), sample ID 17810950, batch 5 are both dissolved in Methylcellulose solution. The concentration is 10 mg/kg, 3 mg/kg and 1 mg/kg in a volume of 0.1 ml p.o. Nintedanib ethanesulfonate is prepared freshly every second day. The concentration is 60 mg/kg in a volume of 0.1 ml p.o. Hydroxyproline assay: The amount of collagen protein in skin samples is determined via hydroxyproline assay. After digestion of full skin thickness punch biopsies (Ø 3 mm) derived from the upper back in 6 M HCl for three hours at 120° C., the pH of the samples is adjusted to 6 with 6 M NaOH. For lungs, the middle lobe is analyzed. Afterwards, 0.06 M chloramine T is added to each sample and incubated for 20 min at room temperature. Next, 3.15 M perchloric acid and 20% p-dimethylaminobenzaldehyde are added and samples are incubated for additional 20 min at 60° C. The absorbance is determined at 557 nm with a Spectra MAX 190 microplate spectrophotometer using a standard curve generated with purified type I collagen (Sigma-Aldrich). In the model of bleomycin-induced lung fibrosis, fibrosis is induced by a single intratracheal injection of 50 μl bleomycin at day 0. Mice injected with equal volumes of 0.9% NaCl served as controls. The outcome is analyzed after 28 days. Treatment is started at day 15 post intratracheal installation of bleomycin and thus at a timepoint, when fibrosis is already preestablished. […] Histological evaluation of pulmonary fibrosis: Whole lungs are excised, fixed in 4% formalin for 6 h and embedded in paraffin. […] are cut and stained with Sirius Red. Images are captured using a Hamamatsu nano sumo S60 slide scanner microscope (Hamamatsu, Herrsching am Ammersee, Germany). Histological changes of pulmonary fibrosis are quantified by Ashcroft Scoring. The analysis is performed in a blinded manner. […] Statistics: All data are presented as median ±range, and differences between the groups are tested for their statistical significance by Mann-Whitney U non-parametric test for non-related samples.
# [4] = tested on: platelet-rich plasma (PRP) from healthy donor volunteers; experiment: Activation of PRP by ADP and CXCL4 detection by ELISA; type: cell-based, human; settings: for ADP-induced CXCL4 production: PRP of 10 donors
# Procedure: • Compound 114 (sample ID: 30295026, batch: 5) • EX0076637 (sample ID: 17810950, batch: 5) • Nintedanib esilate (Boehringer Ingelheim, Manufacture #67653, lot #1078235) • EX0000076 (sample ID: 15614118, batch: 1) • Blood from healthy donor volunteers • Plastic blood collection tubes with sodium citrate (BD biosciences, 363083) • 50 ml conical tube (Corning, 430828) • BSA solution, 30% in saline, fatty acid free, aseptically filled (Sigma, A9205) • ADP (Sigma, 01905-250MG-F) • Tyrode's buffer (Sigma, T2397) • HEPES (Gibco, 15630-080) • DMSO (Sigma, D2650) • 1 ml deep well plate (Thermo Scientific, 260251) • Sterile 0.22 um PVDF filter plate (Millipore, MAGVS2210) • 96 well microplate (Thermo Scientific, 249946) • CXCL4 ELISA kit (Abcam, ab189573 and R&D systems, DPF40)
# Buffer preparation: HEPES-Tyrode BSA buffer: Tyrode's buffer supplemented with 0.35% BSA and 5 mM HEPES.
# Generating platelet-rich plasma (PRP): Blood is collected from healthy donor volunteers, into plastic sodium citrate tubes. The first two collected tubes are discarded. The remaining blood is processed within 30 mins of blood drawing. The blood is poured into 50 ml conical tubes without exceeding 35 ml per tube and centrifuged at 200×g for 16 minutes at room temperature with acceleration set at half of maximum speed and deceleration off. After centrifugation, the top layer (PRP) is carefully transferred to a new tube by avoiding the buffy coat. The PRP is rested at room temperature for 5-15 minutes. The PRP is then ready to use for experiment as described in protocol below.
# (§1) Preparation of Compound: 5.2 mg of Compound 114 is dissolved in […] of 100% DMSO at a concentration of 20 mM. The compound solution is then diluted to 10 mM in 100% DMSO. 10 mM of the compound solution is then diluted to 1 mM and 100 μM in 100% DMSO and then secondarily diluted to 100 μM, 10 μM, and 1 μM in HEPES-Tyrode BSA buffer, making 10× stock solutions.
# as §1, with “Preparation of Compound 114 and EX 76637: 5.2 mg” for “Preparation of Compound: 5.2 mg”, “of 20 mM. 2.3 mg of EX 76637 is dissolved in 109 μl of 100% DMSO at a concentration of 50 mM. The” for “of 20 mM. The”, “and […] in 100%” for “and 100 μM in 100%”
# Preparation of nintedanib: 2.9 mg of nintedanib is dissolved in 446.3 μl of 100% DMSO at a concentration of 10 mM. The compound solution is then diluted to 100 μM in 100% DMSO. 100 μM of the compound solution is then diluted to […] in HEPES-Tyrode BSA buffer, making 10× stock solutions.
# Preparation of EX 00000776 (MMF): 2.3 mg of EX 00000776 is dissolved in 530.5 μl of 100% DMSO at a concentration of 10 mM. The compound solution is then diluted to 5 mM in 100% DMSO. 5 mM of the compound solution is then diluted to 50 µM in HEPES-Tyrode BSA buffer, making 10× stock solutions.
# ADP is dissolved in distilled water at concentration of 100 mM. 100 mM ADP are further diluted in HEPES-Tyrode BSA buffer to 10 mM and then secondarily diluted to 100 μM in HEPES-Tyrode BSA buffer, making a 10× stock.
# Eighty or forty microliters of PRP is added into a well of a 1 ml deep well plate containing 560 μl or 280 μl of HEPES-Tyrode BSA buffer. Eighty or forty microliters of the 10× compound solution is added per well and incubated at 37° C./5% CO2 for 30 mins prior to addition of ADP. Eighty or forty microliters of 100 μM ADP is added per well and the plate incubated at 37° C./5% CO2 for 5 mins. After 5 minutes of incubation, 300 microliters per well of stimulated PRP is transferred to a sterile 0.22 um PVDF 96-well filter plate. A 96 well microplate is placed under the filter plate to collect supernatant after centrifugation at 1100 rpm for 5 mins. […]
# [5] = 60 mg/kg qd for the last three weeks, vs bleomycin/vehicle mice
# [6] = treatment initiated two weeks after instillation of bleomycin until end of experiment
smiles,measurement,setting,value
CCOc1c(C(=O)O)cnn1-c1cccc(-c2cccc(C)c2OCc2ccc3c(c2C)CCN(C2CCOCC2)C3)n1 [Compound 114],"hypoxia-driven TGFβ2 production, statistical significance of reduction","[1]; 10 μM Compound 114, hypoxia 1% O2",Statistically significant reduction
same,hypoxia-induced TGFβ2 production,"[1]; hypoxia 1% O2, 48 hrs, ODQ, supernatant, cells from 3 donors",inhibits hypoxia-induced TGFβ2 levels; also recorded: reduced hypoxia-driven TGFβ2 production in a concentration-dependent manner
same,bleomycin-induced dermal fibrosis,"[2]; doses of 1, 3 or 5 mg/kg for the last two weeks",also ameliorated bleomycin-induced dermal fibrosis
same,effects on dermal fibrosis compared with nintedanib,"[2]; doses of 1, 3 or 5 mg/kg vs nintedanib 60 mg/kg qd",within the range of those observed with nintedanib
same,dose-dependency of effect on dermal fibrosis,"[2]; doses of 1, 3 or 5 mg/kg, trends for dermal thickness and myofibroblast counts",no clear dose-dependency was observed
same,fibrotic readouts of pulmonary fibrosis,"[3]; doses of 1, 3 or 10 mg/kg",significantly improved the fibrotic readouts
same,dose trend for the Ashcroft score,"[3]; doses of 1, 3 or 10 mg/kg, differences did not reach statistical significance",tendency towards more pronounced effects with higher doses
same,ADP-induced CXCL4 production,"[4]; 0.1 μM, 10 μM ADP",reduced ADP-induced CXCL4 production in 9 out of 10 donors
same,ADP-induced CXCL4 production,"[4]; 1 μM and 10 μM, 10 μM ADP",attenuated the ADP-induced CXCL4 production in all 10 donors
same,"ADP-induced CXCL4 production, percentage of Max of all donors","[4]; 10 μM, 1 μM, 0.1 μM, 10 μM ADP, compared to ADP/DMSO",significantly reduced ADP-induced CXCL4 production in a dose-dependent manner
same,"potency/efficacy on ADP-induced CXCL4 production relative to nintedanib, mycophenolate (MMF) and riociguat",[4]; FIG. 5,more potent/more efficacious
"COC(=O)N(C)c1c(N)nc(-c2nn(Cc3ccccc3F)c3ncccc23)nc1N [EX76637, riociguat]",bleomycin-induced dermal fibrosis,[2]; doses of 1 mg/kg,also ameliorated bleomycin-induced dermal fibrosis
same,effects on dermal fibrosis compared with Compound 114,[2]; doses of 1 mg/kg,comparable to those of Compound 114
same,bleomycin-induced pulmonary fibrosis,[3]; 1 mg/kg bid p.o.,also ameliorated bleomycin-induced pulmonary fibrosis
"COC(=O)c1ccc2c(c1)NC(=O)/C2=C(\Nc1ccc(N(C)C(=O)CN2CCN(C)CC2)cc1)c1ccccc1 [nintedanib, Nintedanib ethanesulfonate]",dermal thickness,[2]; [5],reduced
same,hydroxyproline content (skin),[2]; [5],lower
same,myofibroblast counts,[2]; [5],decreased
same,Ashcroft scores,[3]; [6],reduced
same,collagen-covered area,[3]; [6],reduced
same,hydroxyproline content (lung),[3]; [6],reduced
same,effect on ADP-induced CXCL4 production,"[4]; standards of care, 10 μM ADP",ineffective; also recorded: Minimal to no effect
COC(=O)N(C)c1c(N)nc(-c2nn(Cc3ccccc3F)c3ncccc23)nc1N [riociguat],effect on ADP-induced CXCL4 production,"[4]; doses equivalent to Compound 114, 10 μM ADP",minimal effect; also recorded: Minimal to no effect
